Columns and labels:
late watergrass = assay: Test Example 1: herbicidal activity, application before weed generation under submerged conditions (Table 16, symbol A); type: in vivo, late watergrass (Echinochloa oryzicola); conditions: amount of applied herbicide 320 g/ha
Method in brief: (§1)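 Submerged Wagner pots (alluvial soil, 4 cm water) sown with weed seeds and planted with 2.5-leaf rice seedlings; emulsifiable concentrate diluted in water applied to water surface on sowing day. Held in greenhouse at 25-30 °C; injury scored 0-5 by herbicidal rate after three weeks.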

Japanese bulrush = assay: Test Example 1: herbicidal activity, application before weed generation under submerged conditions (Table 16, symbol B); type: in vivo, Japanese bulrush (Schoenoplectus juncoides); conditions: amount of applied herbicide 320 g/ha
Method in brief: as §1

oval-leafed pondweed = assay: Test Example 1: herbicidal activity, application before weed generation under submerged conditions (Table 16, symbol C); type: in vivo, oval-leafed pondweed (Monochoria vaginalis); conditions: amount of applied herbicide 320 g/ha
Method in brief: as §1

barnyard grass [1] = assay: Test Example 3: herbicidal effect by foliage application, Wagner pot (Table 18, symbol H); type: in vivo, barnyard grass (Echinochloa crus-galli); conditions: 320 g/ha
Method in brief: (§2)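 Plants were sown in alluvial soil held under 0.1–0.5 cm standing water and grown 14 days in a greenhouse at 25–30 °C. An emulsifiable formulation, water-diluted to the set dose, was then sprayed onto the foliage, and effects were scored three weeks later using previously defined criteria.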

Chinese sprangletop = assay: Test Example 3: herbicidal effect by foliage application, Wagner pot (Table 18, symbol D); type: in vivo, chinese sprangletop (Leptochloa chinensis); conditions: 320 g/ha
Method in brief: as §2

rice flat sedge = assay: Test Example 3: herbicidal effect by foliage application, Wagner pot (Table 18, symbol E); type: in vivo, rice flat sedge (Cyperus iria); conditions: 320 g/ha
Method in brief: as §2

southern crabgrass [2] = assay: Test Example 4: herbicidal effect by soil treatment (Table 19, symbol F); type: in vivo, southern crabgrass (Digitaria ciliaris); conditions: amount of applied herbicide 320 g/ha
Method in brief: (§3)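 Pre-emergence style soil spray: seeds under ~1.5 cm sterilized diluvial soil received a uniform coat of emulsion diluted to the predetermined herbicide amount. Greenhouse 25–30° C; readout at week three on previously defined criteria.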

green foxtail [3] = assay: Test Example 4: herbicidal effect by soil treatment (Table 19, symbol G); type: in vivo, green foxtail (Setaria viridis); conditions: amount of applied herbicide 320 g/ha
Method in brief: as §3

barnyard grass [4] = assay: Test Example 4: herbicidal effect by soil treatment (Table 19, symbol H); type: in vivo, barnyard grass (Echinochloa crus-galli); conditions: amount of applied herbicide 320 g/ha
Method in brief: as §3

wild oat [5] = assay: Test Example 4: herbicidal effect by soil treatment (Table 19, symbol I); type: in vivo, wild oat (Avena fatua); conditions: amount of applied herbicide 320 g/ha
Method in brief: as §3

blackgrass [6] = assay: Test Example 4: herbicidal effect by soil treatment (Table 19, symbol J); type: in vivo, blackgrass (Alopecurus myosuroides); conditions: amount of applied herbicide 320 g/ha
Method in brief: as §3

Italian ryegrass [7] = assay: Test Example 4: herbicidal effect by soil treatment (Table 19, symbol K); type: in vivo, Italian ryegrass (Lolium multiflorum); conditions: amount of applied herbicide 320 g/ha
Method in brief: as §3

windgrass [8] = assay: Test Example 4: herbicidal effect by soil treatment (Table 19, symbol L); type: in vivo, windgrass (Apera spica-venti); conditions: amount of applied herbicide 320 g/ha
Method in brief: as §3

velvetleaf [9] = assay: Test Example 4: herbicidal effect by soil treatment (Table 19, symbol M); type: in vivo, velvetleaf (Abutilon theophrasti); conditions: amount of applied herbicide 320 g/ha
Method in brief: as §3

redroot pigweed [10] = assay: Test Example 4: herbicidal effect by soil treatment (Table 19, symbol N); type: in vivo, redroot pigweed (Amaranthus retroflexus); conditions: amount of applied herbicide 320 g/ha
Method in brief: as §3

lambsquarters [11] = assay: Test Example 4: herbicidal effect by soil treatment (Table 19, symbol O); type: in vivo, lambsquarters (Chenopodium album); conditions: amount of applied herbicide 320 g/ha
Method in brief: as §3

chickweed [12] = assay: Test Example 4: herbicidal effect by soil treatment (Table 19, symbol P); type: in vivo, common chickweed (Stellaria media); conditions: amount of applied herbicide 320 g/ha
Method in brief: as §3

persian speedwell [13] = assay: Test Example 4: herbicidal effect by soil treatment (Table 19, symbol R); type: in vivo, Persian speedwell (Veronica persica); conditions: amount of applied herbicide 320 g/ha
Method in brief: as §3

southern crabgrass [14] = assay: Test Example 5: herbicidal effect by foliage application, plastic box (Table 20, symbol F); type: in vivo, southern crabgrass (Digitaria ciliaris); conditions: 320 g/ha, foliage application after 14-day growth, evaluated three weeks after application
Method in brief: (§4)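 Plants were sown into sterilized diluvial soil under about 1.5 cm cover and kept in a greenhouse at 25° C. to 30° C. Fourteen days on, foliage received an even spray of the diluted emulsion. Herbicidal or crop effect was judged three weeks afterwards.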

green foxtail [15] = assay: Test Example 5: herbicidal effect by foliage application, plastic box (Table 20, symbol G); type: in vivo, green foxtail (Setaria viridis); conditions: 320 g/ha, foliage application after 14-day growth, evaluated three weeks after application
Method in brief: as §4

barnyard grass [16] = assay: Test Example 5: herbicidal effect by foliage application, plastic box (Table 20, symbol H); type: in vivo, barnyard grass (Echinochloa crus-galli); conditions: 320 g/ha, foliage application after 14-day growth, evaluated three weeks after application
Method in brief: as §4

wild oat [17] = assay: Test Example 5: herbicidal effect by foliage application, plastic box (Table 20, symbol I); type: in vivo, wild oat (Avena fatua); conditions: 320 g/ha, foliage application after 14-day growth, evaluated three weeks after application
Method in brief: as §4

blackgrass [18] = assay: Test Example 5: herbicidal effect by foliage application, plastic box (Table 20, symbol J); type: in vivo, blackgrass (Alopecurus myosuroides); conditions: 320 g/ha, foliage application after 14-day growth, evaluated three weeks after application
Method in brief: as §4

Italian ryegrass [19] = assay: Test Example 5: herbicidal effect by foliage application, plastic box (Table 20, symbol K); type: in vivo, Italian ryegrass (Lolium multiflorum); conditions: 320 g/ha, foliage application after 14-day growth, evaluated three weeks after application
Method in brief: as §4

windgrass [20] = assay: Test Example 5: herbicidal effect by foliage application, plastic box (Table 20, symbol L); type: in vivo, windgrass (Apera spica-venti); conditions: 320 g/ha, foliage application after 14-day growth, evaluated three weeks after application
Method in brief: as §4

velvetleaf [21] = assay: Test Example 5: herbicidal effect by foliage application, plastic box (Table 20, symbol M); type: in vivo, velvetleaf (Abutilon theophrasti); conditions: 320 g/ha, foliage application after 14-day growth, evaluated three weeks after application
Method in brief: as §4

redroot pigweed [22] = assay: Test Example 5: herbicidal effect by foliage application, plastic box (Table 20, symbol N); type: in vivo, redroot pigweed (Amaranthus retroflexus); conditions: 320 g/ha, foliage application after 14-day growth, evaluated three weeks after application
Method in brief: as §4

lambsquarters [23] = assay: Test Example 5: herbicidal effect by foliage application, plastic box (Table 20, symbol O); type: in vivo, lambsquarters (Chenopodium album); conditions: 320 g/ha, foliage application after 14-day growth, evaluated three weeks after application
Method in brief: as §4

chickweed [24] = assay: Test Example 5: herbicidal effect by foliage application, plastic box (Table 20, symbol P); type: in vivo, common chickweed (Stellaria media); conditions: 320 g/ha, foliage application after 14-day growth, evaluated three weeks after application
Method in brief: as §4

persian speedwell [25] = assay: Test Example 5: herbicidal effect by foliage application, plastic box (Table 20, symbol R); type: in vivo, Persian speedwell (Veronica persica); conditions: 320 g/ha, foliage application after 14-day growth, evaluated three weeks after application
Method in brief: as §4

## CCOc1ccccc1-c1sc2c(F)cccc2c1-c1c(O)c(C)nn(C)c1=O [4-007]
Late watergrass
  Herbicidal effect, A: late watergrass: 3 (Herbicidal rate of 40% or more and less than 70%)
Japanese bulrush
  Herbicidal effect, B: Japanese bulrush: 0 (Herbicidal rate of 5% or less (almost no effect))
oval-leafed pondweed
  Herbicidal effect, C: oval-leafed pondweed: 0 (Herbicidal rate of 5% or less (almost no effect))
Barnyard grass [1]
  herbicidal effect on barnyard grass (H): 5 (Herbicidal rate of 90% or more (almost completely withered))
Chinese sprangletop
  herbicidal effect on Chinese sprangletop (D): 3 (Herbicidal rate of 40% or more and less than 70%)
Rice flat sedge
  herbicidal effect on rice flat sedge (E): 5 (Herbicidal rate of 90% or more (almost completely withered))
Southern crabgrass [2]
  Herbicidal effect by soil treatment, F: southern crabgrass: 0 (Herbicidal rate of 5% or less (almost no effect))
Green foxtail [3]
  Herbicidal effect by soil treatment, G: green foxtail: 0 (Herbicidal rate of 5% or less (almost no effect))
Barnyard grass [4]
  Herbicidal effect by soil treatment, H: barnyard grass: 0 (Herbicidal rate of 5% or less (almost no effect))
Wild oat [5]
  Herbicidal effect by soil treatment, I: wild oat: 0 (Herbicidal rate of 5% or less (almost no effect))
Blackgrass [6]
  Herbicidal effect by soil treatment, J: blackgrass: 3 (Herbicidal rate of 40% or more and less than 70%)
Italian ryegrass [7]
  Herbicidal effect by soil treatment, K: Italian ryegrass: 0 (Herbicidal rate of 5% or less (almost no effect))
Windgrass [8]
  Herbicidal effect by soil treatment, L: windgrass: 0 (Herbicidal rate of 5% or less (almost no effect))
Velvetleaf [9]
  Herbicidal effect by soil treatment, M: velvetleaf: 0 (Herbicidal rate of 5% or less (almost no effect))
Redroot pigweed [10]
  Herbicidal effect by soil treatment, N: redroot pigweed: 0 (Herbicidal rate of 5% or less (almost no effect))
Lambsquarters [11]
  Herbicidal effect by soil treatment, O: lambsquarters: 0 (Herbicidal rate of 5% or less (almost no effect))
Chickweed [12]
  Herbicidal effect by soil treatment, P: chickweed: 3 (Herbicidal rate of 40% or more and less than 70%)
Persian speedwell [13]
  Herbicidal effect by soil treatment, R: persian speedwell: 3 (Herbicidal rate of 40% or more and less than 70%)
Southern crabgrass [14]
  herbicidal effect on F: southern crabgrass (evaluation grade 0-5): 3 (Herbicidal rate of 40% or more and less than 70%)
Green foxtail [15]
  herbicidal effect on G: green foxtail (evaluation grade 0-5): 5 (Herbicidal rate of 90% or more (almost completely withered))
Barnyard grass [16]
  herbicidal effect on H: barnyard grass (evaluation grade 0-5): 4 (Herbicidal rate of 70% or more and less than 90%)
Wild oat [17]
  herbicidal effect on I: wild oat (evaluation grade 0-5): 2 (Herbicidal rate of 20% or more and less than 40%)
Blackgrass [18]
  herbicidal effect on J: blackgrass (evaluation grade 0-5): 4 (Herbicidal rate of 70% or more and less than 90%)
Italian ryegrass [19]
  herbicidal effect on K: Italian ryegrass (evaluation grade 0-5): 4 (Herbicidal rate of 70% or more and less than 90%)
Windgrass [20]
  herbicidal effect on L: windgrass (evaluation grade 0-5): 2 (Herbicidal rate of 20% or more and less than 40%)
Velvetleaf [21]
  herbicidal effect on M: velvetleaf (evaluation grade 0-5): 3 (Herbicidal rate of 40% or more and less than 70%)
Redroot pigweed [22]
  herbicidal effect on N: redroot pigweed (evaluation grade 0-5): 3 (Herbicidal rate of 40% or more and less than 70%)
Lambsquarters [23]
  herbicidal effect on O: lambsquarters (evaluation grade 0-5): 1 (Herbicidal rate of 5% or more and less than 20%)
Chickweed [24]
  herbicidal effect on P: chickweed (evaluation grade 0-5): 5 (Herbicidal rate of 90% or more (almost completely withered))
Persian speedwell [25]
  herbicidal effect on R: persian speedwell (evaluation grade 0-5): 5 (Herbicidal rate of 90% or more (almost completely withered))
